Reference: US20140066394A1, “Substituted 6-(Benzylamino) Purine Riboside Derivatives, Use Thereof and Compositions Containing These Derivatives” (Biopatterns, S.R.O, priority 2009, published 2014)

Columns and labels:
neutrophils [1] = test: Neutrophil IL8 release, ELISA; format: cell-based; details: Homo sapiens, primed neutrophils, ELISA (FIG. 3)
Description: Neutrophils were cultured at 2×10^6 cells/ml in RPMI1640 medium containing human serum antibiotics and 20 ng/ml TNFα for 10 minutes prior to addition of a range of concentrations of compound 10. Release of IL8 was monitored after a 4 h period by ELISA. Data are mean of duplicate measurements representative of 5 separate experiments.
(§1) Anti-inflammatory effects against neutrophils were determined by assessing effects of several of the compounds on neutrophil inflammatory activity (superoxide generation, secretion of chemoattractant IL8 and degranulation to release myeloperoxidase). Neutrophils were isolated from human blood to a purity of greater than 95% and were cultured in RPMI1640 medium containing 2% human AB serum, 2 mM L-glutamine and antibiotics (100 U/ml penicillin, […] streptomycin). Neutrophils were primed for 30 minutes with 50 ng/ml GM-CSF prior to treatment with the bacterial stimulant fMLP (100 ng/ml) and measurement of superoxide generation in a lucigenin based assay (see Pongracz J and Lord J M 1998, Biochem. Biophys. Res. Commun. 247, 624-629) and release of IL8 and myeloperoxidase using an ELISA method. The novel compounds were added to the culture at a range of concentrations (0.1-100 μM) 10 minutes prior to addition of fMLP. […]

neutrophils [2] = test: Neutrophil adhesion, rolling and migration under flow over TNF primed HUVEC; format: cell-based, human
Description: Neutrophils were introduced into a flow based cell adhesion instrument at 5×10^6 cells/ml in medium containing 50 or 100 μM of compound 10. The capillary system is lined with TNF-primed HUVEC and cell adhesion, rolling and transmigration is monitored by time-lapse video microscopy. Data are expressed as cells adhered to HUVEC per mm^2, per 10^6 cells (left panel) or % of cells rolling or migrated (right panel). LGR 1406 (N-5-(2-aminocyclohexyl)-N-7-benzyl-3-isopropyl-1(2)H-pyrazolo[4,3-d]pyrimidine-5,7-diamine, Sroka et al. Mol Pharmacol. 2010; 77(2):255-61) was used as a negative control. Data are mean±SD of 3 separate experiments.
LGR 1406 as a negative control.
The ability of neutrophils to adhere to vascular endothelium and migrate from the blood into tissue, is the first step in the inflammatory process. Interference with this process would also result in suppression of inflammation. Neutrophils were flowed over TNF primed endothelial cells (HUVEC) lining a capillary based migration system, at flows rates and pressures mimicking the in vivo vasculature (see for detailed description of apparatus). Cells were recorded using time-lapse video microscopy and the numbers of rolling, adhered and transmigrated cells were enumerated over a 20 minute period. In test incubations the neutrophils and HUVEC were pre-treated with compound 10 at 50 and 100 μM and the compound was also present in the medium in which neutrophils were suspended.

neutrophils [3] = test: Neutrophil superoxide generation, lucigenin based assay; format: cell-based; details: Homo sapiens, primed neutrophils, compound 10 minutes prior to fMLP (FIG. 2)
Description: Neutrophils were cultured at 2×10^6 cells/ml in RPMI1640 medium containing human serum antibiotics and 20 ng/ml TNFα for 10 minutes prior to addition of a range of concentrations of compound 10. Generation of superoxide was determined over a 10 minute period using a lucigenin based assay. The area under the curve was calculated to give superoxide generation over the whole assay period.
as §1

neutrophils [4] = test: Neutrophil spreading in Fibronectin; format: cell-based; details: FIG. 8
neutrophils [5] = test: ANCA stimulated neutrophil degranulation (MPO release, ELISA); format: cell-based; details: Homo sapiens, 0.5 h, TNFα primed, MPO release over 30 minute period (FIG. 10), read-out: IC50 of inhibition of ANCA stimulated neutrophil degranulation
Description: FIG. 10 Inhibition of ANCA induced neutrophil degranulation by compound 10. Neutrophils were cultured at 2×10^6 cells/ml in RPMI1640 medium containing human serum antibiotics and 20 ng/ml TNFα for 10 minutes prior to addition of ANCA (1=MPO ANCA; 2=PR3 ANCA) and a range of concentrations of compound 10. Release of MPO was monitored after a 30 minute period by ELISA.
ANCA are predominantly IgG autoantibodies directed against constituents of primary granules of neutrophils (PR3 and MPO). ANCA associated vasculitis is the most common primary systemic small-vessel vasculitis in adults. […] Neutrophils were cultured for 10 hours in RPMI1640 medium containing 2% human AB serum, 2 mM L-glutamine and antibiotics (100 U/ml penicillin, […] streptomycin) and their apoptosis determined by staining with Giemsa stain and observing an apoptotic morphology by light microscopy. […] The ability of compound 10 to inhibit ANCA-induced neutrophil inflammatory functions was also determined Neutrophils were cultured in RPMI1640 medium containing 2% human AB serum, 2 mM L-glutamine and antibiotics (100 U/ml penicillin, […] streptomycin). […] ANCA stimulated degranulation of neutrophils was assessed by release of myeloperoxidase in to the medium over a 30 minute period, with MPO measured by ELISA. […] HUVEC viability was determined by trypan blue staining and light microscopy.

[6] = compound at 50 and 100 μM, 20 minute period

COc1cccc(CNc2nc(Cl)nc3c2ncn3C2OC(CO)C(O)C2O)c1O (stereo not shown) [Compound 10, 2-Chloro-6-(2-hydroxy-3-methoxybenzylamino)purine riboside]
IC50 (neutrophils [1]): 50 nM
neutrophil rolling velocity (neutrophils [2]; FIG. 7, LGR 1406 as negative control): positive effects
number of cells that adhered and transmigrated through the endothelial layer (neutrophils [2]; [6]): reduced the number of cells that adhered and transmigrated
number of cells that rolled over the endothelium (neutrophils [2]; [6]): increased the ones that rolled over the endothelium
IC50 (neutrophils [3]): 5000 nM
neutrophil spreading in Fibronectin (neutrophils [4]): reduces neutrophil spreading
IC50 (neutrophils [5]): 3000 nM
